SMILES strings stand for the structures. A value given as a limit tells only on which side of the number the result lay.

This passage reports IC50 results from patent US20240190855A1 (Relay Therapeutics, Inc., priority 2021, published 2024).

The target of the test is T1, CDK2/Cyclin E complex (Homo sapiens, UniProt P24941).
T1 construct: purchased Eurofins 14-475
The experiment in a line: CDK2/Cyclin E fluorescence-based microfluidic mobility shift assay (CDK2 Biochemical Caliper Assay). The conditions noted are these: read-out: Biochemical CDK2/CyclinE Caliper IC50. The method, boiled down:
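Wild-type CDK2/Cyclin E was preincubated with compound and ATP for 30 min at RT before the 5-FAM-QSPKKG peptide was added. Final concentrations were 0.1 nM enzyme, 2000 uM ATP, 1.5 uM peptide and 1% DMSO. After 20 hr at RT and EDTA stop, substrate conversion was read by microfluidic mobility shift over an 11-point, 3-fold dilution series.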
Take `COCc1cc(C(=O)Nc2cc([C@H]3CC[C@@H](c4cccc(C(C)C)n4)C3)[nH]n2)n(C)n1` (single isomer, unassigned) [Example 605]: the IC50 fell in the range of 1000 to 100000 nM.
The figure for `COCc1cc(C(=O)Nc2cc([C@@H]3CC[C@H](c4cccc(C(C)C)n4)C3)[nH]n2)n(C)n1` (single isomer, unassigned) [Example 606] is 1000 to 100000 nM; for `COCc1cc(C(=O)Nc2cc([C@H]3CC[C@H](c4cccc(C(C)C)n4)C3)[nH]n2)n(C)n1` (single isomer, unassigned) [Example 607] it is 1000 to 100000 nM.
As for `COCc1cc(C(=O)Nc2cc([C@@H]3CC[C@@H](c4cccc(C(C)C)n4)C3)[nH]n2)n(C)n1` (single isomer, unassigned) [Example 608], the IC50 was 1000 to 100000 nM.
As for `COCc1cc(C(=O)Nc2cc([C@H]3CC[C@@H](c4nccc(C(C)C)n4)C3)[nH]n2)n(C)n1` (single isomer, unassigned) [Example 609], the IC50 was no more than 100 nM.
The figure for `COCc1cc(C(=O)Nc2cc([C@@H]3CC[C@H](c4nccc(C(C)C)n4)C3)[nH]n2)n(C)n1` (single isomer, unassigned) [Example 610] is no more than 100 nM; for `COCc1cc(C(=O)Nc2cc([C@H]3CC[C@H](c4nccc(C(C)C)n4)C3)[nH]n2)n(C)n1` (single isomer, unassigned) [Example 611] it is 1000 to 100000 nM.
For `COCc1cc(C(=O)Nc2cc([C@@H]3CC[C@@H](c4nccc(C(C)C)n4)C3)[nH]n2)n(C)n1` (single isomer, unassigned) [Example 612], the IC50 is 1000 to 100000 nM.
The figure for `COCc1cc2c(Nc3cc([C@H]4C[C@@H](OC(=O)NC(C)(C)C)CO4)[nH]n3)nccn2n1` (single isomer, unassigned) [Example 617] is no more than 100 nM.
The figure for `COCc1cc2c(Nc3cc([C@@H]4C[C@H](OC(=O)NC(C)(C)C)CO4)[nH]n3)nccn2n1` (single isomer, unassigned) [Example 618] is no more than 100 nM; for `COCc1cc2c(Nc3cc([C@H]4C[C@@H](OC(=O)N[C@]5(C)CC5(F)F)CO4)[nH]n3)nccn2n1` (single isomer, unassigned) [Example 729] it is no more than 100 nM; for `COCc1cc2c(Nc3cc([C@H]4C[C@@H](OC(=O)N[C@@]5(C)CC5(F)F)CO4)[nH]n3)nccn2n1` (single isomer, unassigned) [Example 731] it is no more than 100 nM.
On to `COCc1cc2c(Nc3cc([C@H]4C[C@@H](OC(=O)N[C@@H](C)CC(F)(F)F)CO4)[nH]n3)nccn2n1` (single isomer, unassigned) [Example 739], for which the IC50 was no more than 100 nM.
The figure for `COCc1cc2c(Nc3cc([C@H]4C[C@@H](OC(=O)N[C@H](C)CC(F)(F)F)CO4)[nH]n3)nccn2n1` (single isomer, unassigned) [Example 757] is no more than 100 nM; for `CO[C@H](c1cc(C(=O)Nc2cc([C@H]3C[C@@H](OC(=O)NC4(C)CC4)CO3)[nH]n2)n(C)n1)C(F)(F)F` (single isomer, unassigned) [Example 889] it is 100 to 250 nM; for `CO[C@@H](c1cc(C(=O)Nc2cc([C@H]3C[C@@H](OC(=O)NC4(C)CC4)CO3)[nH]n2)n(C)n1)C(F)(F)F` (single isomer, unassigned) [Example 890] it is no more than 100 nM.
The figure for `CO[C@@H](C)c1cc2c(Nc3cc([C@H]4C[C@@H](OC(=O)NC5(C)CC5)CO4)[nH]n3)nccn2n1` (single isomer, unassigned) [Example 891] is no more than 100 nM; for `CO[C@H](C)c1cc2c(Nc3cc([C@H]4C[C@@H](OC(=O)NC5(C)CC5)CO4)[nH]n3)nccn2n1` (single isomer, unassigned) [Example 892] it is no more than 100 nM.
With `Cn1nc(COC(F)(F)F)cc1C(=O)Nc1ncc([C@@H]2C[C@H](OC(=O)NC3(C)CC3)CO2)s1` (single isomer, unassigned) [Example 899], the IC50 is no more than 100 nM.
The figure for `COCc1cc(C(=O)Nc2ncc([C@@H]3C[C@H](OC(=O)NC4(C)CC4)CO3)s2)n(C)n1` (single isomer, unassigned) [Example 900] is no more than 100 nM; for `Cn1nc(COC(F)(F)F)cc1C(=O)Nc1ncc([C@H]2C[C@@H](OC(=O)NC3(C)CC3)CO2)s1` (single isomer, unassigned) [Example 903] it is no more than 100 nM; for `COCc1cc(C(=O)Nc2ncc([C@H]3C[C@@H](OC(=O)NC4(C)CC4)CO3)s2)n(C)n1` (single isomer, unassigned) [Example 905] it is no more than 100 nM.
The figure for `Cc1cc(CC(=O)Nc2ncc(C3CCCC3)o2)on1` [Example 38] is 1000 to 100000 nM; for `Cc1cc(CC(=O)Nc2nc(C3CCCC3)c[nH]2)on1` [Example 43] it is 1000 to 100000 nM; for `Cc1cc(CC(=O)Nc2cc(C3(C)CCCC3)[nH]n2)on1` [Example 47] it is 1000 to 100000 nM.
Under `Cc1cc(CC(=O)Nc2cc(C3CCCCC3)[nH]n2)on1` [Example 48] stands 1000 to 100000 nM.
In the case of `Cc1cc(CC(=O)Nc2cc([C@H]3C[C@@H]4C[C@@H]4C3)[nH]n2)on1` [Example 50], the IC50 was in the range of 1000 to 100000 nM.
Under `Cc1cc(CC(=O)Nc2cc(N3CC[C@H](COC(=O)NC4(C)CC4)C3)[nH]n2)on1` [Example 51] stands 1000 to 100000 nM; under `Cc1cc(CC(=O)Nc2cc(N3CC[C@H]3COC(=O)NC3(C)CC3)[nH]n2)on1` [Example 52], 1000 to 100000 nM; under `Cc1cc(CC(=O)Nc2cc(C3CCNCC3)[nH]n2)on1` [Example 54], 1000 to 100000 nM.
The figure for `Cc1cc(CC(=O)Nc2cc(C3CC3)[nH]n2)on1` [Example 59] is 1000 to 100000 nM; for `Cc1cc(CC(=O)Nc2cn(C3CCCC3)cn2)on1` [Example 60] it is 1000 to 100000 nM; for `Cc1cc(CC(=O)Nc2ncn(C3CCCC3)n2)on1` [Example 61] it is 1000 to 100000 nM.
The figure for `Cc1cc(CC(=O)Nc2cc(-c3ccccc3)[nH]n2)on1` [Example 62] is 1000 to 100000 nM; for `Cc1cc(CC(=O)Nc2cc(C3CCCC3)[nH]n2)on1` [Example 66] it is 1000 to 100000 nM; for `Cc1cc(CC(=O)Nc2cc([C@H]3C[C@@H](COC(=O)NC(C)C)C3)[nH]n2)on1` [Example 125] it is no more than 100 nM.
With `Cc1cc(CC(=O)Nc2cc([C@H]3CC[C@@H](COC(=O)NC(C)C)CC3)[nH]n2)on1` [Example 135], the IC50 lay in the range of 1000 to 100000 nM.
Under `Cc1cc(CC(=O)Nc2cc([C@H]3CC[C@@H](OC(=O)N(C(C)C)C(C)C)C3)n[nH]2)on1` [Example 147] stands no more than 100 nM; under `Cc1cc(CC(=O)Nc2cc(-c3csc4cncnc34)[nH]n2)on1` [Example 240], 1000 to 100000 nM.
The figure for `COCc1cc(C(=O)Nc2cc(-c3csc4cncnc34)[nH]n2)n(C)n1` [Example 242] is 1000 to 100000 nM; for `Cc1cc(CC(=O)Nc2cc(C34CCC(CC3)C4)[nH]n2)on1` [Example 244] it is 1000 to 100000 nM.
Under `c1cnc(Nc2cc(C34CCC(CC3)C4)[nH]n2)nc1` [Example 314] stands 1000 to 100000 nM; under `Cc1cc(CC(=O)Nc2cc(-c3csc4cnc(NC(C)C)nc34)[nH]n2)on1` [Example 336], 250 to 1000 nM; under `COCc1cc(C(=O)Nc2cc(-c3csc4cnc(NC(C)C)nc34)[nH]n2)n(C)n1` [Example 337], 1000 to 100000 nM.
In the case of `Cc1cc(CC(=O)Nc2cc([C@H]3C[C@@H](CC(=O)NC(C)C)C3)[nH]n2)on1` [Example 347], the IC50 was 1000 to 100000 nM.
The figure for `Cc1cc(CC(=O)Nc2cc([C@H]3C[C@H](CC(=O)NC(C)C)C3)[nH]n2)on1` [Example 348] is 1000 to 100000 nM; for `COCc1cc(C(=O)Nc2cc([C@H]3C[C@@H](CC(=O)NC(C)C)C3)[nH]n2)n(C)n1` [Example 360] it is 1000 to 100000 nM.
Under `COCc1cc(C(=O)Nc2cc([C@H]3C[C@H](CC(=O)NC(C)C)C3)[nH]n2)n(C)n1` [Example 361] stands 1000 to 100000 nM; under `Cc1cc(CC(=O)Nc2cc([C@H]3C[C@@H](COc4nscc4C4CC4)C3)[nH]n2)on1` [Example 368], no more than 100 nM; under `Cc1cc(CC(=O)Nc2cc([C@H]3C[C@H](COc4nscc4C4CC4)C3)[nH]n2)on1` [Example 369], 1000 to 100000 nM.
The figure for `Cc1ccc(O[C@@H]2CC[C@H](c3cc(NC(=O)Cc4cc(C)no4)n[nH]3)C2)nn1` [Example 397] is 250 to 1000 nM; for `Cc1cc(CC(=O)Nc2cc([C@H]3C[C@@H](Oc4nnccc4C(C)C)CO3)[nH]n2)on1` [Example 406] it is no more than 100 nM; for `Cc1cc(CC(=O)Nc2cc([C@@H]3C[C@H](Oc4nnccc4C(C)C)CO3)[nH]n2)on1` [Example 407] it is no more than 100 nM.
`CC(C)c1ccnnc1O[C@H]1CC[C@@H](c2cc(Nc3nccc4ncsc34)n[nH]2)CC1` [Example 412]: the IC50 was no more than 100 nM.
Under `Cc1cc(CC(=O)Nc2cc(C3CCCN3)[nH]n2)on1` (centres unmarked) [Example 416] stands 1000 to 100000 nM; under `CC(C)NC(=O)O[C@@H]1CC[C@H](c2cc(Nc3ncnc4ncsc34)n[nH]2)C1` [Example 425], no more than 100 nM.
Under `CC(C)NC(=O)O[C@H]1CC[C@@H](c2cc(Nc3ncnc4ncsc34)n[nH]2)C1` [Example 426] stands no more than 100 nM.
Under `COCc1cc(C(=O)Nc2cc([C@H]3C[C@@H](COc4nnccc4C(C)C)C3)[nH]n2)n(C)n1` [Example 429] stands no more than 100 nM.
With `COCc1cc(C(=O)Nc2cc([C@H]3C[C@H](COc4nnccc4C(C)C)C3)[nH]n2)n(C)n1` [Example 430], the IC50 is 1000 to 100000 nM.
Under `Cc1cc(CC(=O)Nc2cc([C@H]3C[C@@H](COc4nnccc4C(C)C)C3)[nH]n2)on1` [Example 431] stands no more than 100 nM; under `Cc1cc(CC(=O)Nc2cc([C@H]3C[C@H](COc4nnccc4C(C)C)C3)[nH]n2)on1` [Example 432], 100 to 250 nM.
Under `CC(C)NC(=O)O[C@H]1CO[C@@H](c2cc(Nc3nccc4ncsc34)n[nH]2)C1` [Example 433] stands no more than 100 nM.
